The experiment addresses T1, PD-1-Ig binding to PD-L1-TVMV-His (PD-L1-His) (Homo sapiens, UniProt Q9NZQ7).
T1 construct: hPDL1(19-239)-TVMV-His; made in house; host or cells: HEK293T cells
Description: PD-1/PD-L1 Homogenous Time-Resolved Fluorescence (HTRF) binding assay. Particulars: PD-1-Ig (20 nM) / PD-L1-His (10 nM). The procedure, abridged:
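HTRF competition: compound pre-incubated 15 min with PD-L1-His (10 nM final), then PD-1-Ig (20 nM final) added for 15 min in dPBS, 0.1% BSA, 0.05% Tween-20. Detection with Eu-cryptate anti-Ig (1 nM) and APC anti-His (20 nM) antibodies.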
Background: In TR-FRET formats the signal depends on donor and acceptor labels being close together.

Positions of bridges follow the written chain, without caps; N, C: chain ends. Non-standard residues stand in square brackets, D forms with d. Residues, ends and D or L forms follow the SMILES beside them. Trp(1-CH2COOH) = N[C@@H](Cc1cn(CC(=O)O)c2ccccc12)C(=O)O; Phe(4-F) = N[C@@H](Cc1ccc(F)cc1)C(=O)O; Phe(4-Me) = Cc1ccc(C[C@H](N)C(=O)O)cc1; Hyp = O=C(O)[C@@H]1C[C@@H](O)CN1; Aad = N[C@@H](CCCC(=O)O)C(=O)O; NMeNle = CCCC[C@H](NC)C(=O)O; dOrn = NCCC[C@@H](N)C(=O)O; Pip = O=C(O)[C@@H]1CCCCN1; NMeA = CN[C@@H](C)C(=O)O; Dab = NCC[C@H](N)C(=O)O; Dap = NC[C@H](N)C(=O)O; Ava = NCCCCC(=O)O; βAla = NCCC(=O)O

T1 sequence (Q9NZQ7 with tags, fused parts or gaps): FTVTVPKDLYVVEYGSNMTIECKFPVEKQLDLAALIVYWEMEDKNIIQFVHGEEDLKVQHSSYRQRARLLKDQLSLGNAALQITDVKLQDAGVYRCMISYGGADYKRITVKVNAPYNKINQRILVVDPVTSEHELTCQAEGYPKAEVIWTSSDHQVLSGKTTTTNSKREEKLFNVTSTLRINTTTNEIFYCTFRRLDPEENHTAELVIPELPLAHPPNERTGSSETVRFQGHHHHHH

The term IC50 denotes the concentration that inhibits the measured activity by half. Lower therefore signals inhibition by little substance. As for `CCCC[C@H]1C(=O)N(C)[C@@H](CCCC)C(=O)N[C@@H](CC(C)C)C(=O)NCCCCC(=O)N[C@@H](Cc2ccc(C)cc2)C(=O)N2CCCC[C@H]2C(=O)N[C@@H](CC(N)=O)C(=O)N2CCC[C@H]2C(=O)N[C@@H](CN)C(=O)N[C@@H](CC(C)C)C(=O)N2C[C@H](O)C[C@H]2C(=O)N[C@@H](Cc2c[nH]c3ccccc23)C(=O)N[C@@H](CCN)C(=O)N[C@@H](Cc2cn(CC(=O)O)c3ccccc23)C(=O)N1C` [Example 10540] (cyclo([Ava][Phe(4-Me)][Pip]NP[Dap]L[Hyp]W[Dab][Trp(1-CH2COOH)][NMeNle][NMeNle]L)), the IC50 (range classes) fell in the range of 1 to 9.9 nM.
The same measure, in the same setting: with `CCCC[C@H]1C(=O)N(C)[C@@H](CCCC)C(=O)N[C@@H](CC(C)C)C(=O)N[C@H](C(N)=O)COCC(=O)N[C@@H](Cc2ccc(C)cc2)C(=O)N2CCCC[C@H]2C(=O)N[C@@H](CC(N)=O)C(=O)N2CCC[C@H]2C(=O)N[C@@H](CN)C(=O)N[C@@H](CC(C)C)C(=O)N2C[C@H](O)C[C@H]2C(=O)N[C@@H](Cc2c[nH]c3ccccc23)C(=O)N[C@@H](CCN)C(=O)N[C@@H](Cc2cn(CC(=O)O)c3ccccc23)C(=O)N1C` [Example 10527] the figure was 10 to 99 nM; with `CCCC[C@H]1C(=O)N(C)[C@@H](CCCC)C(=O)N[C@@H](CC(C)C)C(=O)N[C@H](C(=O)NCC(N)=O)CCCNCC(=O)N[C@@H](Cc2ccc(O)cc2)C(=O)N(C)[C@@H](C)C(=O)N[C@@H](CC(N)=O)C(=O)N2CCC[C@H]2C(=O)N[C@@H](Cc2cnc[nH]2)C(=O)N[C@@H](CCC(N)=O)C(=O)N2C[C@H](O)C[C@H]2C(=O)N[C@@H](Cc2c[nH]c3ccccc23)C(=O)NCC(=O)N[C@@H](Cc2c[nH]c3ccccc23)C(=O)N1C` [Example 10019], 100 to 10000 nM.
Consider `CCCC[C@H]1C(=O)N(C)[C@@H](CCCC)C(=O)N[C@@H](CC(C)C)C(=O)N[C@H](C(N)=O)CNCC(=O)N[C@@H](Cc2ccc(O)cc2)C(=O)N2CCCC[C@H]2C(=O)N[C@@H](CC(N)=O)C(=O)N2CCC[C@H]2C(=O)N[C@@H](Cc2c[nH]cn2)C(=O)N[C@@H](CCC(=O)O)C(=O)N2C[C@H](O)C[C@H]2C(=O)N[C@@H](Cc2c[nH]c3ccccc23)C(=O)N[C@@H](C)C(=O)N[C@@H](Cc2cn(CC(=O)O)c3ccccc23)C(=O)N1C` [Example 9050], for which, for the setting “range classes”, the IC50 fell in the range of 1 to 9.9 nM.
The same measure, in the same setting: for `CCCC[C@H]1C(=O)N(C)[C@@H](CCCC)C(=O)NC(CC(C)C)C(=O)N[C@H](C(=O)NCC(N)=O)CNCC(=O)N[C@@H](Cc2ccc(O)cc2)C(=O)N(C)[C@@H](C)C(=O)N[C@@H](CC(N)=O)C(=O)N2CCC[C@H]2C(=O)N[C@@H](CN)C(=O)N[C@@H](CCC(=O)O)C(=O)N2C[C@H](O)C[C@H]2C(=O)N[C@@H](Cc2c[nH]c3ccccc23)C(=O)N[C@@H](CCN)C(=O)N[C@@H](Cc2cn(CC(=O)O)c3ccccc23)C(=O)N1C` (stereo partly shown) [Example 1031] the value was 1 to 9.9 nM; for `CCCC[C@H]1C(=O)N(C)[C@@H](CCCC)C(=O)N[C@@H](CC(C)C)C(=O)NCCC[C@@H](N)C(=O)N[C@@H](Cc2ccc(OC)cc2)C(=O)N2CCCC[C@H]2C(=O)N[C@@H](CC(N)=O)C(=O)N2CCC[C@H]2C(=O)N[C@@H](CN)C(=O)N[C@@H](CCC(=O)O)C(=O)N2C[C@H](O)C[C@H]2C(=O)N[C@@H](Cc2c[nH]c3ccccc23)C(=O)N[C@@H](CCN)C(=O)N[C@@H](Cc2cn(CC(=O)O)c3ccccc23)C(=O)N1C` [Example 10569] (H-[dOrn]Y(Me)[Pip]NP[Dap]E[Hyp]W[Dab][Trp(1-CH2COOH)][NMeNle][NMeNle]L; lactam 1-C), 1 to 9.9 nM.
Compound `CCCC[C@H]1C(=O)N(C)[C@@H](CCCC)C(=O)N[C@@H](CC(C)C)C(=O)N[C@H](C(N)=O)CNCC(=O)N[C@@H](Cc2ccc(F)cc2)C(=O)N2CCCC[C@H]2C(=O)N[C@@H](CC(=O)O)C(=O)N2CCC[C@H]2C(=O)N[C@@H](CCC(N)=O)C(=O)N[C@@H](CCC(N)=O)C(=O)N2C[C@H](O)C[C@H]2C(=O)N[C@@H](Cc2c[nH]c3ccccc23)C(=O)N[C@@H](CC(N)=O)C(=O)N[C@@H](Cc2cn(CC(=O)O)c3ccccc23)C(=O)N1C` [Example 9041] came in with an IC50 (numeric values) of 5 nM.
For `CCCC[C@H]1C(=O)N(C)[C@@H](CCCC)C(=O)N[C@@H](CCC(=O)O)C(=O)N[C@H](C(N)=O)CCCC(=O)N[C@@H](Cc2ccc(F)cc2)C(=O)N2CCCC[C@H]2C(=O)N[C@@H](CC(N)=O)C(=O)N2CCC[C@H]2C(=O)N[C@@H](CN)C(=O)N[C@@H](CC(C)C)C(=O)N2C[C@H](O)C[C@H]2C(=O)N[C@@H](Cc2c[nH]c3ccccc23)C(=O)N[C@@H](CCN)C(=O)N[C@@H](Cc2cn(CC(=O)O)c3ccccc23)C(=O)N1C` [Example 10564] ([Phe(4-F)][Pip]NP[Dap]L[Hyp]W[Dab][Trp(1-CH2COOH)][NMeNle][NMeNle]E[Aad]-NH2; lactam N-14), the IC50 (range classes) was in the range of 10 to 99 nM.
Consider `CCCC[C@H]1C(=O)N(C)[C@@H](CCCC)C(=O)N[C@@H](CC(C)C)C(=O)NCC(=O)NCCC(=O)N[C@@H](Cc2ccc(O)cc2)C(=O)N(C)[C@@H](C)C(=O)N[C@@H](CC(N)=O)C(=O)N2CCC[C@H]2C(=O)N[C@@H](Cc2c[nH]cn2)C(=O)N[C@@H](CC(C)C)C(=O)N2C[C@H](O)C[C@H]2C(=O)N[C@@H](Cc2c[nH]c3ccccc23)C(=O)NCC(=O)N[C@@H](Cc2c[nH]c3ccccc23)C(=O)N1C` [Example 5004] (cyclo(GW[NMeNle][NMeNle]LG[βAla]Y[NMeA]NPHL[Hyp]W)), for which, where the note is “range classes”, the IC50 was 100 to 10000 nM.
Same read-out and setting: with `CCCC[C@H]1C(=O)N(C)[C@@H](CCCC)C(=O)N[C@@H](CCC(=O)O)C(=O)N[C@H](C(=O)NCC(N)=O)CNCC(=O)N[C@@H](Cc2ccc(O)cc2)C(=O)N(C)[C@@H](C)C(=O)N[C@@H](CC(N)=O)C(=O)N2CCC[C@H]2C(=O)N[C@@H](CCC(N)=O)C(=O)N[C@@H](CCC(N)=O)C(=O)N2C[C@H](O)C[C@H]2C(=O)N[C@@H](Cc2c[nH]c3ccccc23)C(=O)N[C@@H](CC(N)=O)C(=O)N[C@@H](Cc2cn(CC(=O)O)c3ccccc23)C(=O)N1C` [Example 9021] the figure was 10 to 99 nM; with `CCCC[C@H]1C(=O)N(C)[C@@H](CCCC)C(=O)N[C@@H](CCC(=O)O)C(=O)N[C@H](C(N)=O)CNCC(=O)N[C@@H](Cc2ccc(O)cc2)C(=O)N2CCCC[C@H]2C(=O)N[C@@H](CC(N)=O)C(=O)N2CCC[C@H]2C(=O)N[C@@H](Cc2c[nH]cn2)C(=O)N[C@@H](CCC(N)=O)C(=O)N2C[C@H](O)C[C@H]2C(=O)N[C@@H](Cc2c[nH]c3ccccc23)C(=O)N[C@@H](C)C(=O)N[C@@H](Cc2cn(CC(=O)O)c3ccccc23)C(=O)N1C` [Example 9056], 1 to 9.9 nM.
The compound `CCCC[C@H]1C(=O)N(C)[C@@H](CCCC)C(=O)N[C@@H](CC(C)C)C(=O)N[C@H](C(=O)NCC(N)=O)CNCC(=O)N[C@@H](Cc2ccc(F)cc2)C(=O)N(C)[C@@H](C)C(=O)N[C@@H](CC(=O)O)C(=O)N2CCC[C@H]2C(=O)N[C@@H](CCC(N)=O)C(=O)N[C@@H](CC(=O)O)C(=O)N2C[C@H](O)C[C@H]2C(=O)N[C@@H](Cc2c[nH]c3ccccc23)C(=O)N[C@@H](CC(N)=O)C(=O)N[C@@H](Cc2cn(CC(=O)O)c3ccccc23)C(=O)N1C` [Example 9015] had a half-inhibitory concentration (IC50) (numeric values) of 15 nM.
Regarding `CCCC[C@H]1C(=O)N(C)[C@@H](CCCC)C(=O)N[C@@H](CC(C)C)C(=O)N[C@H](C(=O)NCC(N)=O)CCCC(=O)N[C@@H](Cc2ccc(O)cc2)C(=O)N2CCCC[C@H]2C(=O)N[C@@H](CC(N)=O)C(=O)N2CCC[C@H]2C(=O)N[C@@H](CN)C(=O)N[C@@H](CC(C)C)C(=O)N2C[C@H](O)C[C@H]2C(=O)N[C@@H](Cc2c[nH]c3ccccc23)C(=O)N[C@@H](CCN)C(=O)N[C@@H](Cc2cn(CC(=O)O)c3ccccc23)C(=O)N1C` [Example 10515] (Y[Pip]NP[Dap]L[Hyp]W[Dab][Trp(1-CH2COOH)][NMeNle][NMeNle]L[Aad]G-NH2; lactam N-14), the 50% inhibitory concentration (IC50) (range classes) lay in the range of 10 to 99 nM.
In turn, `CCCC[C@H]1C(=O)N(C)[C@@H](CCCC)C(=O)NC(CC(C)C)C(=O)N[C@H](C(=O)NCC(N)=O)CNCC(=O)N[C@@H](Cc2ccc(O)cc2)C(=O)N(C)[C@@H](C)C(=O)N[C@@H](CC(N)=O)C(=O)N2CCC[C@H]2C(=O)N[C@@H](Cc2cnc[nH]2)C(=O)N[C@@H](CC(C)C)C(=O)N2CCC[C@H]2C(=O)N[C@@H](Cc2c[nH]c3ccccc23)C(=O)N[C@@H](CC(N)=O)C(=O)N[C@@H](Cc2c[nH]c3ccccc23)C(=O)N1C` (stereo partly shown) [Example 10003] yielded a concentration for half-maximal inhibition (IC50) (range classes) of 1 to 9.9 nM.
Still for that read-out and setting: for `CCCC[C@H]1C(=O)N(C)[C@@H](CCCC)C(=O)N[C@@H](CC(C)C)C(=O)N[C@H](C(N)=O)CCCC(=O)N[C@@H](Cc2ccc(F)cc2)C(=O)N2CCCC[C@H]2C(=O)N[C@@H](CC(=O)O)C(=O)N2CCC[C@H]2C(=O)N[C@@H](CN)C(=O)N[C@@H](CC(C)C)C(=O)N2C[C@H](O)C[C@H]2C(=O)N[C@@H](Cc2c[nH]c3ccccc23)C(=O)N[C@@H](CCN)C(=O)N[C@@H](Cc2cn(CC(=O)O)c3ccccc23)C(=O)N1C` [Example 10555] ([Phe(4-F)][Pip]DP[Dap]L[Hyp]W[Dab][Trp(1-CH2COOH)][NMeNle][NMeNle]L[Aad]-NH2; lactam N-14) the value was 10 to 99 nM.
The same measure, in the same setting: with `CCCC[C@H]1C(=O)N(C)[C@@H](CCCC)C(=O)N[C@@H](CC(C)C)C(=O)N[C@H](C(N)=O)CCCC(=O)N[C@@H](Cc2ccc(OC)cc2)C(=O)N2CCCC[C@H]2C(=O)N[C@@H](CC(N)=O)C(=O)N2CCC[C@H]2C(=O)N[C@@H](CN)C(=O)N[C@@H](CCC(=O)O)C(=O)N2C[C@H](O)C[C@H]2C(=O)N[C@@H](Cc2c[nH]c3ccccc23)C(=O)N[C@@H](CCN)C(=O)N[C@@H](Cc2cn(CC(=O)O)c3ccccc23)C(=O)N1C` [Example 10522] (Y(Me)[Pip]NP[Dap]E[Hyp]W[Dab][Trp(1-CH2COOH)][NMeNle][NMeNle]L[Aad]-NH2; lactam N-14) the figure was 10 to 99 nM.

(Values after US9732119B2, “Immunomodulators” (BRISTOL-MYERS SQUIBB COMPANY, priority 2014, dated 2017).)
